According to patent publication US20220348572A1, “BRIDGED HETEROCYCLYL-SUBSTITUTED PYRIMIDINE COMPOUND, PREPARATION METHOD THEREFOR, AND PHARMACEUTICAL USE THEREOF” (The National Institutes of Pharmaceutical R&D Co., Ltd., priority 2019, published 2022):

Target: T1, JAK1 kinase (Homo sapiens, UniProt P23458)
T1 construct: purchased Invitrogen PV4744
Experiment: In vitro inhibitory activity on JAK1 kinase (ADP-Glo Kinase Assay)
Assay type: biochemical
Details: JAK1 kinase 4 nM, 1 mM ATP
Method: Test Example 1: Determination of In Vitro Inhibitory Activity of the Compounds of the Present Invention on JAK1 Kinase Experimental materials: JAK1 kinase (Invitrogen, PV4744), ATP (Promega, V915B), ADP-Glo Kinase Assay (Promega, V9101), IRS1 (Signalchem, 140-58-1000). Sample preparation: The compounds of the present invention and the control product were dissolved in DMSO solvent respectively to formulate into 10 mM initial liquid. The maximum concentration of the compound was 10 μM, 3-fold dilution, 10 concentration gradients, and duplicate wells for each concentration gradient. Experimental processs: 0.1 μL of the compound to be tested was transferred into a 384 reaction plate (PE, 6007290) via Echo and centrifuged at 1000 rpm/min for 1 min. 5 μL JAK1 kinase (final concentration of 4 nM) was transferred into the 384 reaction plate, which was then centrifuged at 1000 rpm/min for 1 min, and incubated at 25° C. for 15 min. 5 μL substrate mixture (1 mM ATP, IRS1 0.05 mg/ml, kinase buffer solution) was transferred into the 384 reaction plate, which was then centrifuged at 1000 rpm/min for 1 min, and incubated at 25° C. for 60 min. 10 μL ADP-Glo was transferred into the 384 reaction plate, which was then centrifuged at 1000 rpm/min for 1 min, and incubated at 25° C. for 40 min. 20 μL test solution was transferred into the 384 reaction plate, which was then centrifuged at 1000 rpm/min for 1 min and incubated at 25° C. for 40 min. RLU (Relative luminescence unit) signal was read by using an Envision multifunctional plate reader. The signal intensity was used to characterize the degree of the kinase activity. […] IC50 value of 0-100 nM is shown as A, IC50 value of 100-300 nM is shown as B, IC50 value of 300-1000 nM is shown as C, and IC50 value which is greater than 1000 nM is shown as D. NT means not tested.

T1 sequence (P23458 866-1154 limits assumed): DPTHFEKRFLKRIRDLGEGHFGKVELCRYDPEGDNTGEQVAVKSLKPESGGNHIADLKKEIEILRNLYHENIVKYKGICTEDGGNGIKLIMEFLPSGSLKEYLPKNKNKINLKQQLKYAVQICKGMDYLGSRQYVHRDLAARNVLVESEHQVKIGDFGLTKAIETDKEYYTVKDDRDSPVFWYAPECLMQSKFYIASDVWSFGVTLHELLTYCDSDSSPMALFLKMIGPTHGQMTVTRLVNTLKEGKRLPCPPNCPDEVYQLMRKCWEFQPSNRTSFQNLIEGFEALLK

Row | SMILES | IC50
1 | Cn1cc(Nc2nccc(C3=CC4CCC(C3)N4C(=O)C(C)(C)C(F)(F)F)n2)cn1 (stereo not shown) [Compound 68, 3,3,3-trifluoro-2,2-dimethyl-1-(3-(2-((1-methyl-1H-pyrazol-4-yl)amino)pyrimidin-4-yl)-8-azabicyclo[3.2.1]oct-2-en-8-yl)acetone] | 300 to 1000 nM
2 | O=C([C@@H]1CC1(F)F)N1C2C=C(c3ccnc(Nc4cnn(C5COC5)c4)n3)CC1CC2 (stereo partly drawn) [Compound 37, ((S)-2,2-difluorocyclopropyl)(3-(2-((1-(oxetan-3-yl)-1H-pyrazol-4-yl)amino)pyrimidin-4-yl)-8-azabicyclo[3.2.1]oct-2-en-8-yl)methanone] | 300 to 1000 nM
3 | C[C@@H](NC(=O)N1C2C=C(c3ccnc(Nc4cnn(C)c4)n3)CC1CC2)C(F)(F)F (stereo partly drawn) [Compound 56, 3-(2-((1-Methyl-1H-pyrazol-4-yl)amino)pyrimidin-4-yl)-N-((R)-1,1,1-trifluoropropane-2-yl)-8-azabicyclo[3.2.1]oct-2-ene-8-carboxamide] | 300 to 1000 nM
4 | C#CCC(=O)N1C2C=C(c3ccnc(Nc4cnn(C)c4)n3)CC1CC2 (stereo not shown) [Compound 53, 1-(3-(2-((1-methyl-1H-pyrazol-4-yl)amino)pyrimidin-4-yl)-8-azabicyclo[3.2.1]oct-2-en-8-yl)but-3-yn-1-one] | > 1000 nM
5 | CCCS(=O)(=O)N1CC(N2C3C=C(c4ccnc(Nc5cnn(C)c5)n4)CC2CC3)C1 (stereo not shown) [Compound 84, N-(1-methyl-1H-pyrazol-4-yl)-4-(8-(1-(propansulfonyl)azetidin-3-yl)-8-azabicyclo[3.2.1]oct-2-en-3-yl)pyrimidin-2-amine] | > 1000 nM
6 | Cn1cc(Nc2nccc(C3=CC4CCC(C3)N4C(=O)CCC(F)(F)F)n2)cn1 (stereo not shown) [Compound 5, 4,4,4-trifluoro-1-(3-(2-((1-methyl-1H-pyrazol-4-yl)amino)pyrimidin-4-yl)-8-azabicyclo[3.2.1]oct-2-en-8-yl)butan-1-one] | 300 to 1000 nM
7 | Cn1cc(Nc2nccc(C3=CC4CCC(C3)N4C(=O)C34CC(C#N)(C3)C4)n2)cn1 (stereo not shown) [Compound 73, 3-(3-(2-((1-methyl-1H-pyrazol-4-yl)amino)pyrimidin-4-yl)-8-azabicyclo[3.2.1]oct-2-ene-8-formyl)bicyclo[1.1.1]pentane-1-carbonitrile] | > 1000 nM
8 | Cn1cc(Nc2nccc(C3=CC4CCC(C3)N4C(=O)N3CCC(F)(F)C3)n2)cn1 (stereo not shown) [Compound 8, (3,3-difluoropyrrolidin-1-yl)(3-(2-((1-methyl-1H-pyrazol-4-yl)amino)pyrimidin-4-yl)-8-azabicyclo[3.2.1]oct-2-en-8-yl)methanone] | 300 to 1000 nM
9 | COC1CC(C(=O)N2C3C=C(c4ccnc(Nc5cnn(C)c5)n4)CC2CC3)C1 (stereo not shown) [Compound 80, (3-methoxycyclobutyl)(3-(2-((1-methyl-1H-pyrazol-4-yl)amino)pyrimidin-4-yl)-8-azabicyclo[3.2.1]oct-2-en-8-yl)methanone] | > 1000 nM
10 | Cn1cc(Nc2nccc(C3=CC4CCC(C3)N4C(=O)C3CC3(C)C)n2)cn1 (stereo not shown) [Compound 60, (2,2-Dimethylcyclopropyl)(3-(2-((1-methyl-1H-pyrazol-4-yl)amino)pyrimidin-4-yl)-8-azabicyclo[3.2.1]oct-2-en-8-yl)methanone] | > 1000 nM
11 | Cn1cc(Nc2nccc(C3=CC4CCC(C3)N4C3(CC#N)CN(C(=O)NCC(F)(F)F)C3)n2)cn1 (stereo not shown) [Compound 86, 3-(cyanomethyl)-3-(3-(2-((1-methyl-1H-pyrazol-4-yl)amino)pyrimidin-4-yl)-8-azabicyclo[3.2.1]oct-2-en-8-yl)-N-(2,2,2-trifluoroethyl)azetidine-1-carboxamide] | > 1000 nM
12 | Cn1cc(Nc2nccc(C3=CC4CCC(C3)N4C(=O)NCCC(F)(F)F)n2)cn1 (stereo not shown) [Compound 57, 3-(2-((1-methyl-1H-pyrazol-4-yl)amino)pyrimidin-4-yl)-N-(3,3,3-trifluoropropyl)-8-azabicyclo[3.2.1]oct-2-ene-8-carboxamide] | 300 to 1000 nM
13 | CC(C(=O)N1C2C=C(c3ccnc(Nc4cnn(C)c4)n3)CC1CC2)C(F)(F)F (stereo not shown) [Compound 67, 3,3,3-trifluoro-2-methyl-1-(3-(2-((1-methyl-1H-pyrazol-4-yl)amino)pyrimidin-4-yl)-8-azabicyclo[3.2.1]oct-2-en-8-yl)-1-acetone] | 300 to 1000 nM

Next, values leading:

Row | IC50 | SMILES
14 | 100 to 300 nM | O=C([C@@H]1CC1(F)F)N1C2C=C(c3ccnc(Nc4cnn(CCO)c4)n3)CC1CC2 (stereo partly drawn) [Compound 40, ((S)-2,2-difluorocyclopropyl)(3-(2-((1-(2-hydroxyethyl)-1H-pyrazol-4-yl)amino)pyrimidin-4-yl)-8-azabicyclo[3.2.1]oct-2-en-8-yl)methanone]
15 | < 100 nM | Cn1cc(Nc2nccc(C3=CC4CCC(C3)N4C(=O)C3CC3C(F)(F)F)n2)cn1 (stereo not shown) [Compound 49, (3-(2-((1-methyl-1H-pyrazol-4-yl)amino)pyrimidin-4-yl)-8-azabicyclo[3.2.1]oct-2-en-8-yl)(2-(trifluoromethyl)cyclopropyl)methanone]
16 | 300 to 1000 nM | Cn1cc(Nc2nccc(C3=CC4CCC(C3)N4C(=O)C3CC3c3ccccc3)n2)cn1 (stereo not shown) [Compound 59]
17 | 100 to 300 nM | Cn1cc(Nc2nccc(C3=CC4CCC(C3)N4C(=O)NC3CC3(F)F)n2)cn1 (stereo not shown) [Compound 14, N-(2,2-difluorocyclopropyl)-3-(2-((1-methyl-1H-pyrazol-4-yl)amino)pyrimidin-4-yl)-8-azabicyclo[3.2.1]oct-2-ene-8-carboxamide]
18 | 100 to 300 nM | Cn1cc(Nc2nccc(C3=CC4CCC(C3)N4C(=O)C(F)(F)C3CC3)n2)cn1 (stereo not shown) [Compound 75, 2-cyclopropyl-2,2-difluoro-1-(3-(2-((1-methyl-1H-pyrazol-4-yl)amino)pyrimidin-4-yl)-8-azabicyclo[3.2.1]oct-2-en-8-yl)ethan-1-one]
19 | < 100 nM | NC(=O)Cn1cc(Nc2nccc(C3=CC4CCC(C3)N4C(=O)[C@@H]3CC3(F)F)n2)cn1 (stereo partly drawn) [Compound 38, 2-(4-((4-(8-((S)-2,2-Difluorocyclopropane-1-formyl)-8-azabicyclo[3.2.1]oct-2-en-3-yl)pyrimidin-2-yl)amino)-1H-pyrazol-1-yl)acetamide]
20 | < 100 nM | Cn1cc(Nc2nccc(C3=CC4CCC(C3)N4C(=O)C3CCC3C#N)n2)cn1 (stereo not shown) [Compound 77, 2-(3-(2-((1-methyl-1H-pyrazol-4-yl)amino)pyrimidin-4-yl)-8-azabicyclo[3.2.1]oct-2-ene-8-formyl)cyclobutane-1-carbonitrile]
21 | 100 to 300 nM | Cc1cnc(Nc2cnn(C)c2)nc1C1=C[C@@H]2CC[C@H](C1)N2C(=O)[C@@H]1CC1(F)F [Compound 22-a, ((S)-2,2-difluorocyclopropyl)((1S,5R)-3-(5-methyl-2-((1-methyl-1H-pyrazol-4-yl)amino)pyrimidin-4-yl)-8-azabicyclo[3.2.1]oct-2-en-8-yl)methanone]
22 | < 100 nM | Cn1cc(Nc2nccc(C3=C[C@@H]4CC[C@H](C3)N4C(=O)NCC(F)(F)F)n2)cn1 [Compound 3-a, (1S,5R)-3-(2-((1-methyl-1H-pyrazol-4-yl)amino)pyrimidin-4-yl)-N-(2,2,2-trifluoroethyl)-8-azabicyclo[3.2.1]oct-2-ene-8-carboxamide]
23 | 100 to 300 nM | Cn1cc(Nc2nccc(C3=CC4CCC(C3)N4C(=O)C3CC3(F)Cl)n2)cn1 (stereo not shown) [Compound 50, (2-chloro-2-fluorocyclopropyl)(3-(2-((1-methyl-1H-pyrazol-4-yl)amino)pyrimidin-4-yl)-8-azabicyclo[3.2.1]oct-2-en-8-yl)methanone]
24 | < 100 nM | Cc1cnc(Nc2cnn(C)c2)nc1C1=C[C@H]2CC[C@@H](C1)N2C(=O)[C@@H]1CC1(F)F [Compound 22-b, ((S)-2,2-difluorocyclopropyl)((1R,5S)-3-(5-methyl-2-((1-methyl-1H-pyrazol-4-yl)amino)pyrimidin-4-yl)-8-azabicyclo[3.2.1]oct-2-en-8-yl)methanone]
25 | 100 to 300 nM | Cn1cc(Nc2nccc(C3=CC4CCC(C3)N4C(=O)CC(F)F)n2)cn1 (stereo not shown) [Compound 66, 3,3-difluoro-1-(3-(2-((1-methyl-1H-pyrazol-4-yl)amino)pyrimidin-4-yl)-8-azabicyclo[3.2.1]oct-2-en-8-yl)-1-acetone]
26 | 100 to 300 nM | Cn1cc(Nc2nccc(C3=CC4CCC(C3)N4C(=O)C3CCOC3)n2)cn1 (stereo not shown) [Compound 76, (3-(2-((1-methyl-1H-pyrazol-4-yl)amino)pyrimidin-4-yl)-8-azabicyclo[3.2.1]oct-2-en-8-yl)(tetrahydrofuran-3-yl)methanone]
27 | 100 to 300 nM | Cn1cc(Nc2nccc(C3=CC4CCC(C3)N4C(=O)NCCOC(F)(F)F)n2)cn1 (stereo not shown) [Compound 58, 3-(2-((1-methyl-1H-pyrazol-4-yl)amino)pyrimidin-4-yl)-N-(2-(trifluoromethoxy)ethyl)-8-azabicyclo[3.2.1]oct-2-ene-8-carboxamide]
28 | < 100 nM | Cc1cnc(Nc2cnn(C)c2)nc1C1=C[C@@H]2CC[C@H](C1)N2C(=O)NCC(F)(F)F [Compound 19-a, (1S,5R)-3-(5-methyl-2-((1-methyl-1H-pyrazol-4-yl)amino)pyrimidin-4-yl)-N-(2,2,2-trifluoroethyl)-8-azabicyclo[3.2.1]oct-2-ene-8-carboxamide]
